These results are taken from patent US9326515B2, “Fungicidal 3-[(1,3-thiazol-4-ylmethoxyimino)(phenyl)methyl]-2-substituted-1,2,4-oxadiazol-5(2H)-one derivatives” (BAYER INTELLECTUAL PROPERTY GMBH, priority 2011, dated 2016).

For this data set the following is noted: pH 2.7.
Usually LogP stands for the decadic logarithm of the partition coefficient of the neutral form, usually between octanol and water. Consider `CCCCC(C)C(=O)Nc1nc(CO/N=C(/c2ccccc2)c2nc(=O)on2C)cs1` (racemic) [Example 42], for which the log partition coefficient (LogP) is recorded as 3.42. The same measure for `CC(C)C(C)OC(=O)Nc1nc(CO/N=C(/c2ccccc2)c2nc(=O)on2C)cs1` (racemic) [Example 46]: 3.35; for `CC(C(=O)Nc1nc(CO/N=C(/c2ccccc2)c2nc(=O)on2C)cs1)c1ccccc1` (racemic) [Example 49]: 3.15; for `CC(OC(=O)Nc1nc(CO/N=C(/c2ccccc2)c2nc(=O)on2C)cs1)C1CCCCC1` (racemic) [Example 56]: 4.31. In turn, `Cn1oc(=O)nc1C(=NOCc1csc(NC(=O)Oc2ccc(F)cc2)n1)c1ccccc1` [Example 5] returned a LogP of 3.02. For `COc1cccc(/C(=N/OCc2csc(NC(=O)C(C)(C)Oc3ccccc3)n2)c2nc(=O)on2C)c1` [Example 36] the value was 3.63.

With `CCn1oc(=O)nc1/C(=N\OCc1csc(NC(=O)OCCc2ccccc2)n1)c1ccccc1` [Example 37], the LogP was 3.55. For `CCn1oc(=O)nc1/C(=N\OCc1csc(NC(=O)COc2ccccc2)n1)c1ccccc1` [Example 38] the value was 3.17; for `COCCn1oc(=O)nc1/C(=N\OCc1csc(NC(=O)OCCc2ccccc2)n1)c1ccccc1` [Example 39], 3.55; for `C#CCCCC(=O)Nc1nc(CO/N=C(/c2ccccc2)c2nc(=O)on2C)cs1` [Example 40], 2.54. The same measure for `Cn1oc(=O)nc1/C(=N\OCc1csc(NC(=O)CCC2CCCCC2)n1)c1ccccc1` [Example 41]: 3.92; for `Cn1oc(=O)nc1/C(=N\OCc1csc(NC(=O)CCC2CCCC2)n1)c1ccccc1` [Example 43]: 3.58. The same measure for `Cn1oc(=O)nc1/C(=N\OCc1csc(NC(=O)OCCC2CCCCC2)n1)c1ccccc1` [Example 45]: 4.21; for `CC#CCOC(=O)Nc1nc(CO/N=C(/c2ccccc2)c2nc(=O)on2C)cs1` [Example 47]: 2.66. For the compound `Cc1ccc(C(=O)Nc2nc(CO/N=C(/c3ccccc3)c3nc(=O)on3C)cs2)cc1` [Example 48], the LogP came out at 3.17. In turn, `CC(C)[C@@H]1CC[C@@H](C)C[C@H]1OC(=O)Nc1nc(CO/N=C(/c2ccccc2)c2nc(=O)on2C)cs1` [Example 50] returned a LogP of 4.91. For `Cn1oc(=O)nc1/C(=N\OCc1csc(NC(=O)OC(C)(C)C(Cl)(Cl)Cl)n1)c1ccccc1` [Example 51] the value was 3.96. The compound `Cn1oc(=O)nc1/C(=N\OCc1csc(NC(=O)OCCC2CCCC2)n1)c1ccccc1` [Example 52] displayed a log partition coefficient (LogP) of 3.96. Turning to `Cn1oc(=O)nc1/C(=N\OCc1csc(NC(=O)CC2CCCC2)n1)c1ccccc1` [Example 53], the LogP turned out to be 3.19. The same measure for `CC#CCCOC(=O)Nc1nc(CO/N=C(/c2ccccc2)c2nc(=O)on2C)cs1` [Example 54]: 2.80. Regarding `CC(C)CCOC(=O)Nc1nc(CO/N=C(/c2ccccc2)c2nc(=O)on2C)cs1` [Example 55], the LogP amounted to 3.44. Regarding `Cn1oc(=O)nc1/C(=N\OCc1csc(NC(=O)CCc2ccccc2)n1)c1ccccc1` [Example 57], the lipophilicity (LogP) worked out at 3.09. The same measure for `Cn1oc(=O)nc1/C(=N\OCc1csc(NC(=O)C2CCCC2)n1)c1ccccc1` [Example 58]: 2.88; for `CCCCOC(=O)Nc1nc(CO/N=C(/c2ccccc2)c2nc(=O)on2C)cs1` [Example 59]: 3.13.

`CCCCC(=O)Nc1nc(CO/N=C(/c2ccccc2)c2nc(=O)on2C)cs1` [Example 60]: the lipophilicity (LogP) stood at 2.80.

For the compound `Cn1oc(=O)nc1/C(=N\OCc1csc(NC(=O)OCC(C)(C)C)n1)c1ccccc1` [Example 61], the LogP was found to be 3.39. For `CC(C)CC(=O)Nc1nc(CO/N=C(/c2ccccc2)c2nc(=O)on2C)cs1` [Example 62] the value was 2.75.

As for `Cn1oc(=O)nc1C(=NOCc1csc(NC(=O)OCC2CCCCC2)n1)c1ccccc1` [Example 63], the lipophilicity (LogP) is listed as 3.92.
